One assay addresses M3 muscarinic receptor (Rattus norvegicus, UniProt P08483). The format is binding.
In the next assay the target is M2 muscarinic receptor (Rattus norvegicus, UniProt P10980). It is filed as binding.
M2 muscarinic receptor, sequence (P10980 whole entry): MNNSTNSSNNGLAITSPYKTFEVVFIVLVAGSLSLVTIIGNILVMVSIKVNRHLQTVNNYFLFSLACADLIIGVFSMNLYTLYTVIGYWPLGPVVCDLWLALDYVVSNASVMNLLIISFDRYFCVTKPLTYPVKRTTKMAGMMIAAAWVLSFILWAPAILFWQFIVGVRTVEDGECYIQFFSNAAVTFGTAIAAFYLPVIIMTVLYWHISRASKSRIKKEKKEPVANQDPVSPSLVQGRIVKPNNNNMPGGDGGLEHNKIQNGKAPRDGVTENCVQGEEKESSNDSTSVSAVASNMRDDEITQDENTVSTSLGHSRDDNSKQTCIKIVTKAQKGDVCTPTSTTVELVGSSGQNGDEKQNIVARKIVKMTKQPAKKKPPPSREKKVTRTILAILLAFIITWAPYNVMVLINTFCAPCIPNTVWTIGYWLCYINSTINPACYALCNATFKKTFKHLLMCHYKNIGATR

M3 muscarinic receptor, sequence (P08483 whole entry): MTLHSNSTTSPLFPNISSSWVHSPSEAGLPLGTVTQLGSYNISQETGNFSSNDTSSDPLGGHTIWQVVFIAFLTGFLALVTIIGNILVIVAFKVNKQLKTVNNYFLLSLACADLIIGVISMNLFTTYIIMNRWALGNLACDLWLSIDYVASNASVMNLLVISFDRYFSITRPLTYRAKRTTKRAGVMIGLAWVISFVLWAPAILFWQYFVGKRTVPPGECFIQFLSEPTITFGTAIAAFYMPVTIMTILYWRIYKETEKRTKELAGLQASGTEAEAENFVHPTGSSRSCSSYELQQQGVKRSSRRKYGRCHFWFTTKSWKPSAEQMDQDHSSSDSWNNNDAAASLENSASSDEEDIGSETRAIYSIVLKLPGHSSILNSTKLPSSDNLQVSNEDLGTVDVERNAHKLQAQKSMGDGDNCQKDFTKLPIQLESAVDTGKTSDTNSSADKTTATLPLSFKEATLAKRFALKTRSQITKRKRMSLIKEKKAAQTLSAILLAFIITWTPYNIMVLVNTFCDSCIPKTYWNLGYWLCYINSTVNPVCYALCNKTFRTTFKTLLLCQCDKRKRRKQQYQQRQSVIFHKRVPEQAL

As to “(3S)-1-[(phenylacetyl)pyrrolidin-3-yl]cyclopentyl(hydroxy)phenyl acetate [Compound No. 11]”, at M3 muscarinic receptor, the “Receptor Binding Assay M3 pki” value is below 6. The “Receptor Binding Assay M2 PKi” value on M2 muscarinic receptor is listed as below 6.
